Laboratory results published in US20090274626A1, “TARGETING TNF-alpha CONVERTING ENZYME(TACE)- DEPENDENT GROWTH FACTOR SHEDDING IN CANCER THERAPY” (The Regents of the University of California, priority 2005, published 2009).
“Also recorded” adds a separate entry of the source.

Experiments:
[1] = test system: T4-2 cells expressing AREGΔTM; test: 3D culture of T4-2 cells expressing soluble AREG (AREGΔTM): colony size and morphology; format: cell-based, human; settings: AG1478-treated AREGΔTM vs proAREG colonies, P<0.0001
Experimental: (§1) For 3D lrECM culture, T4-2 cells were seeded at 21000 cells per cm^2 on top of Matrigel, overlaid with H14 medium containing 5% Matrigel (BD Biosciences, San Jose, Calif.), and treated with 80 nM AG1478, 20 μM TAPI-2 or the relevant vehicle controls.
(§2) Amphotropic retroviruses were generated by transfection (Lipofectamine; Invitrogen, Carlsbad, Calif.) of the Phoenix packaging cell line (a gift of Dr. Gary Nolan, Stanford) with pBM-IRES-Puro or derivatives containing the AREG or TGFα open reading frames. Two million phoenix cells per 6 cm dish were plated the day prior to transfection and transfected with 2 μg of the appropriate retroviral construct. Retrovirus-containing culture medium was harvested after 48 hrs, supplemented with polybrene to 5 μg/ml and added to HMT3522 cells at 30-50% confluence. Pools of stable infectants were selected in 1 μg/ml puromycin.
(§3) Cloning of pro-AREG and pro-TGFα. The open reading frames of these genes were amplified by PCR from T4-2 cDNA. […]
(§4) Quantitation of colony size in the 3D lrECM culture was performed by image analysis. […] The high resolution digital images were then analyzed using NIH Image analysis software and the cross-sectional area of each colony was determined for many colonies. This process was hand-curated to ensure that aggregates of colonies were not measured as a single colony.

[2] = test system: T4-2 cells; test: 3D culture of T4-2 cells in 80 nM AG1478 with various amounts of EGF; format: cell-based, human; settings: 80 nM AG1478, four days
Experimental: It was shown that increasing amounts of the EGFR ligand, EGF, attenuates T4-2 cells response to 80 nM of AG 1478. Cells were cultured for four days in 80 nM AG1478 and various amounts of EGF. Above a threshold EGF concentration between 0.1-1 ng/ml ([…]), the EGFR inhibitor can no longer revert the malignant phenotype. Thus, reversion of T4-2 cells by EGFR inhibition is overcome by the presence of picomolar amounts of EGFR ligand.

[3] = test system: T4-2 cells; test: 3D lrECM (Matrigel) culture of T4-2 cells: reversion of malignant phenotype, polarity, colony size; format: cell-based, human
Experimental: as §1
Silencer™ siRNAs against TACE (Ambion, Austin, Tex.) were also transfected in according to the Reverse Transfection protocol of Invitrogen. siRNAs against the following TACE sense strand sequences were transfected either individually (100 nM) or as a pool (33.3 nM each): […]tt (SEQ ID NO: 2), GCAGCAt[…]tt (SEQ ID NO:3) and […]tt (SEQ ID NO: 4). For 3D culture assays, T4-2 cells were trypsinized post-transfection and plated as single cells in Matrigel. Knockdown was assessed by western blot from a parallel transfection 48 hrs post-transfection. Random siRNA sequence was used as a negative control.
Indirect immunofluorescence. Colonies were solubilized from […] culture by shaking in PBS/0.05M EDTA on ice for 30 mins, fixed in 4% paraformaldehyde, permeabilized, stained with anti-α6-integrin (Chemicon, Temecula, Calif.) and counterstained with DAPI.
Quantitation of colony size in the 3D lrECM culture was performed by image analysis. Representative images were captured using a digital camera attached to a phase contrast microscope. The high resolution digital images were then analyzed using NIH Image analysis software and the cross-sectional area of each colony was determined for many colonies. This process was hand-curated to ensure that aggregates of colonies were not measured as a single colony.

[4] = test system: T4-2 cells; test: Relative proliferation of T4-2 cells with AG 1478 with or without TAPI-2 (sensitization, FIG. 5); format: cell-based, human; settings: 0.01 μM AG 1478 alone
Experimental: FIG. 5. […] T4-2 cells were allowed to adhere to 48 well plates. Drugs were added at the indicated concentrations. Conditions were analyzed in triplicate. For comparison, all data were normalized to the 100%.
(FIG. 5) In this experiment, T4-2 cells were allowed to adhere to 48 well plates. Drugs, AG 1478 and TAPI-2, were added at various concentrations of 0.001 μM, 0.01 μM, 0.1 μM, 1 μM, 10 μM and 100 μM. Conditions were analyzed in triplicate. For comparison, all data were normalized to the 100%.

[5] = test system: T4-2 cells expressing TGFαΔTM; test: 3D culture of T4-2 cells expressing soluble TGFα (TGFαΔTM): colony size and morphology; format: cell-based, human; settings: AG1478-treated TGFαΔTM vs proTGFα colonies, P<0.05
Experimental: as §1, §2, §3, §4

[6] = test system: patients with advanced pancreatic adenocarcinoma; settings: cited from earlier work
[7] = test system: NSCLC; settings: single agent in NSCLC; cited from earlier work
[8] = test system: MAPK; test: MAPK activation in S1 cells by conditioned medium from T4-2 cells; format: cell-based, human; settings: pre-incubation of S1 cells with inhibitor
Experimental: Western blotting. Cells were lysed in 50 mM Tris.HCl pH 7.5, 150 mM NaCl, 0.5% NP40 supplemented with protease and phosphatase inhibitors (Calbiochem, San Diego, Calif.) and clarified by centrifugation. 50 μg of each sample was fractionated by SDS-PAGE, transferred to nitrocellulose membranes and probed with antibodies against the following proteins: phospho-MAPK, Total MAPK, phospho-p70S6-Kinase, (Cell Signaling Technology, MA). E-cadherin (BD Biosciences, CA) was used as a loading control. Blots were developed using Supersignal West Femto (Pierce, Rockland, Ill.). Images were captured using a Fluor Chem 8900 imager (Alpha Innotech, San Leandro, Calif.).

[9] = test system: non-small cell lung cancer (NSCLC) patients; settings: two large trials, chemotherapy with Gefitinib; cited from earlier work
[10] = test system: T4-2 cells; test: T4-2 cell proliferation with Gefitinib in absence or presence of TGFα; format: cell-based, human; settings: Gefitinib 0 nM, 0.3 nM and 3 nM
Experimental: Control cells were cultured in the absence of TGFα and cells were cultured in the presence of TGFα. Both the control cells and cells grown with TGFα were also cultured with various amounts of Gefitinib at 0 nM, 0.3 nM and 3 nM.

[11] = target: transmembrane precursor of Amphiregulin (pro-AREG) (human (cloned from T4-2 human breast cell cDNA)) (UniProt P15514); test: cell-based or functional assay
[12] = test system: S1 cells; test: S1 cell proliferation with recombinant EGFR ligands; format: cell-based, human; settings: recombinant ligand equimolar to EGF (860 μM)
Experimental: Cell culture All reagents were purchased from SIGMA (St. Louis, Mo.) except where otherwise noted. HMT3522 cells were cultivated on 2D and 3D substrata in H14 medium, a 50:50 mix of DMEM/F12 (UCSF Cell culture Facility, San Francisco, Calif.) supplemented with 5 μg/ml prolactin, 250 ng/ml insulin, 1.4×10^−6 M hydrocortisone, 10^−10 M β-estradiol, 2.6 ng/ml sodium selenite and 10 μg/ml transferrin. S1 cells were additionally supplemented with 10 ng/ml EGF. In various experiments, cells were supplemented with AREG, TACE, TGFα. In all cases, AREG and TGFα were used at the same molar concentration as EGF ([…]).
Proliferation assays. HMT3522 cells were seeded in 96 well plates and treated (in triplicate) as described in the figure legends. To determine relative growth, 0.1 volumes of WST cell proliferation analysis reagent (Roche, Indianapolis, Ind.) was added to the medium and its formazan metabolite was measured by absorbance at 460 nm.

**Q.** With COc1cc2ncnc(Nc3cccc(Cl)c3)c2cc1OC [AG1478] as the molecule, how does the “colony size in presence of the EGFR inhibitor” value [1] read?
**A.** consistently larger than those formed by cells infected with either empty vector or with the membrane-tethered pro-forms

**Q.** What about the “threshold EGF concentration above which the EGFR inhibitor can no longer revert the malignant phenotype” value ([2]; 3D culture) of the same molecule?
**A.** 0.1 to 1 ng/mL

**Q.** And the threshold EGF concentration above which the EGFR inhibitor can no longer revert the malignant phenotype ([2]; molar equivalent)?
**A.** 8.6 to 86 pM

**Q.** What about the “colony size (cross-sectional area) vs vehicle” value ([3]; 3D culture, four days, p<0.001) of the same molecule?
**A.** significantly smaller than those formed by cells treated with vehicle alone; also recorded: significantly different from controls

**Q.** And the “reversion of the malignant phenotype of T4-2 cells” value ([3]; 3D lrECM culture, 80 nM AG1478 or 20 μM TAPI-2 vs vehicle)?
**A.** reversion of the malignant phenotype; also recorded: may be reverted

**Q.** And the “reduction in proliferation, EGFR inhibitor alone” value [4]?
**A.** no reduction in proliferation

**Q.** And the “colony size in presence of the EGFR inhibitor” value [5]?
**A.** consistently larger than those formed by cells infected with either empty vector or with the membrane-tethered pro-forms

**Q.** Which “median extension in progression-free survival” value ([6]; added to gemcitabine) does the source give for C#Cc1cccc(Nc2ncnc3cc(OCCOC)c(OCCOC)cc23)c1 [Erlotinib] here?
**A.** six

**Q.** What about the “median increase in overall survival” value ([6]; added to gemcitabine) of the same molecule?
**A.** 14 days

**Q.** And the survival benefit [6]?
**A.** statistically significant survival benefit

**Q.** What about the “increase in median progression-free survival time” value [7] of the same molecule?
**A.** two

**Q.** For COc1cc2ncnc(Nc3ccc(F)c(Cl)c3)c2cc1OCCCN1CCOCC1 [Gefitinib], which “activation of MAPK in S1 cells by T4-2 conditioned medium” value [8] is on record?
**A.** suppressed

**Q.** What about the “survival vs chemotherapy alone” value [9] of the same molecule?
**A.** no better than chemotherapy alone

**Q.** What about the “effect of added TGFα on sensitivity of T4-2 cells to Gefitinib (cell proliferation)” value [10] of the same molecule?
**A.** reduced the effectiveness

**Q.** Which reduction in AREG shedding from MCF-7 cells after siRNA knockdown of TACE [11] does the source give for “TACE/ADAM17 expressed endogenously in human breast cancer cells (T4-2, MCF-7) (from UniProt P78536 215-824) (enzyme)” here?
**A.** 90%

**Q.** With TGFα: recombinant EGFR ligand TGFα as the molecule, how does the “proliferation of non-malignant S1 cells in place of EGF” value [12] read?
**A.** can substitute for EGF to promote proliferation

B1: AREG: recombinant EGFR ligand Amphiregulin (protein, UniProt P15514 101-187, looked up)
Amphiregulin: SVRVEQVVKPPQNKTESENTSDKPKRKKKGGKNGKNRRNRKKKNPCNAEFQNFCIHGECKYIEHLEAVTCKCQQEYFGERCGEKSMK
**Q.** For B1, which “proliferation of non-malignant S1 cells in place of EGF” value [12] is on record?
**A.** can substitute for EGF to promote proliferation
